According to US10471020B2, “Nanoparticles with protected interiors, and methods of use thereof” (Universidade de Santiago de Compostela, priority 2016, dated 2019):

Key:
Caco-2 cells = assay: Cytotoxicity study on Caco-2 cells (MTS assay); assay type: cell-based, Human; conditions: Caco-2, 2 hour incubation
Protocol: Culture of Caco-2 cells. Caco-2 cells were grown in DMEM high glucose with L-glutamine supplemented with 10% heat inactivated fetal bovine serum, 1% penicillin (100 U/mL), streptomycin (100 micrograms/mL), and 1% NEAA solution.
Cytotoxicity study on Caco-2 cells. Cytotoxicity was determined using a MTS assay as an indicator of cell viability. Cell viability was assessed after the co-incubation of 10,000 Caco-2 cells/well on a 96-well tissue cultured plate (Costar® Corning®) with the aforementioned formulations in dispersion in culture DMEM medium supplemented with 4 mM of glutamine, 100 U/mL of penicillin, 100 microgram/mL of streptomycin and […] heat inactivated fetal bovine serum. […] The EC50 value for the different formulations were calculated from the dataset by non-linear regression analysis using GraphPad Prism.

[1] = system: human intestinal tissue (jejunal); assay: Toxicity in human intestinal tissue in Ussing chambers (electrophysiology, forskolin response); conditions: Ussing chamber
Text: Toxicity and permeability in human intestinal tissue. Jejunal tissue samples were collected from patients undergoing laparoscopic Roux-en-Y gastric bypass. Patients had given full informed consent. The study has been reviewed and approved by a regional ethical review board. Tissue samples were immediately transferred into a vessel containing cold, oxygenated Krebs-Ringer buffer and quickly transported to the laboratory. Arriving, the epithelium was dissected away from sub-epithelial tissues and mounted in horizontal as well as vertically oriented Ussing chambers with 9 mm openings between the two chambers. The basolateral chamber was filled with glucose containing Krebs-Ringer buffer, while the glucose in the apical chamber was substituted with mannitol. This is to avoid SGLT-induced tight junction opening. […] Electrophysiology of the tissue was monitored throughout the experiment to assure continued tissue viability. […] Viable tissue with oxidative metabolism will form cAMP in response to forskolin leading to an opening of CFTR C1 channels, the response was monitored as changes in potential difference and short-circuit current over the epithelium. The permeability of fluorescently labeled nanoparticles was analyzed in a plate reader and the apparent permeability rate constant (Papp) was calculated.

Compound | cytotoxicity sequence of tested products (Caco-2 cells) | forskolin response [1] | cytotoxicity (Caco-2 cells)
CCCCCCCCCCCC(=O)N[C@H](CCCNC(=N)N)C(=O)N[C@H](CCCNC(=N)N)C(=O)N[C@H](CCCNC(=N)N)C(=O)N[C@H](CCCNC(=N)N)C(=O)N[C@H](CCCNC(=N)N)C(=O)N[C@H](CCCNC(=N)N)C(=O)N[C@H](CCCNC(=N)N)C(=O)N[C@H](CCCNC(=N)N)C(N)=O [Formulation C12-R8] | Chol-R8>C12-R8>ENCPs>diblock or branched PGA-PEG | no evident change | 
CC(C)CCC[C@@H](C)[C@H]1CC[C@H]2[C@@H]3CC=C4C[C@@H](OC(=O)N[C@H](CCCNC(=N)N)C(=O)N[C@H](CCCNC(=N)N)C(=O)N[C@H](CCCNC(=N)N)C(=O)N[C@H](CCCNC(=N)N)C(=O)N[C@H](CCCNC(=N)N)C(=O)N[C@H](CCCNC(=N)N)C(=O)N[C@H](CCCNC(=N)N)C(=O)N[C@H](CCCNC(=N)N)C(N)=O)CC[C@]4(C)[C@H]3CC[C@]12C [Chol-R8] | Chol-R8>C12-R8>ENCPs>diblock or branched PGA-PEG |  | highest cytotoxicity
